The text below walks through data of article PMC7179399, “Development and Characterization of the Shortest Anti-Adhesion Peptide Analogue of B49Mod1” (Molecules, 2020).

Holding throughout (settings): 24 h
Data set [1] deals with human peripheral blood mononuclear cells (PBMCs). The experiment in a line: MTT viability assay, PBMCs. In kind it is cell-based. The source says:
Cell Lines: MDA-MB-468, MDA-MB-231, ZR-75-1, MCF7, and T47D were obtained from the Physical Sciences-Oncology Network (PS-ON) Bioresource Core Facility (PBCF) at American Type Culture Collection (ATCC, Manassas, VA, USA). SKBR3 cell line was a kind gift from Dr. Hyungjin Kim at Stony Brook University. ZR-75-1, MCF7, and T47D were maintained in complete RPMI 1640 media. MDA-MB-468, MDA-MB-231, and SKBR3 were maintained in complete DMEM media. Both complete RPMI and DMEM were supplemented with 10% FBS, 1% penicillin-streptomycin, 1 µg/mL Amphotericin B, 1% of l-glutamine, 2 mM sodium pyruvate, and 10 mM HEPES buffer at pH 8. Human Peripheral Blood Mononuclear Cells (PBMCs) were isolated from fresh human blood by Ficoll-Paque PLUS and cultured in complete RPMI 1640 media.
(§1) Viability Assay: Equivalent numbers of cells from each cell line was seeded in 96-well plate and incubated at 37 °C for 24 hours before treatment. The cells were treated with different concentration of peptides and incubated for 24 hours at 37 °C. 20 µl of 5mg/ml of MTT reagent was added to each well and incubated for 4 hours at 37 °C. The supernatant was then removed, followed by addition of 150 µl of MTT solvent, with shaking 15 min at room temperature. Absorbance at 590 nm was then measured through the BioTek Synergy H1 microplate reader.
In general terms: Tetrazolium dyes change colour on reduction, which living cells bring about.

The test system of data set [2] is SKBR3. The data set is classed as cell-based, human. As for the experimental part: as §1
Data set [3] relates to MCF7. The data set is classed as cell-based, human. The method, then:
as §1

Ends that are not written are not given here.

Broadly, the IC50 is the midpoint of a concentration-inhibition curve. In the case of GFQDVEAQAATCNHTVMA [B18], the “cytotoxic effect on quiescent PBMCs” value in data set [1] is listed as “no cytotoxic effect was observed”. For the same sequence, the results for the IC50 in data set [2] and in data set [3] were 11.2 ± 3.4 µM and 59.8 ± 5.3 µM, respectively.
